From ChEMBL document CHEMBL1909046, “DrugMatrix in vitro pharmacology data”

Key:
[1] = molecular target: T1, Alpha-1D adrenergic receptor (Homo sapiens, UniProt P25100); format: cell membranes, HEK293, Membrane; further: in other assays of this panel Not Active means under 50% inhibition at 10 µM
T1 sequence (P25100 whole entry): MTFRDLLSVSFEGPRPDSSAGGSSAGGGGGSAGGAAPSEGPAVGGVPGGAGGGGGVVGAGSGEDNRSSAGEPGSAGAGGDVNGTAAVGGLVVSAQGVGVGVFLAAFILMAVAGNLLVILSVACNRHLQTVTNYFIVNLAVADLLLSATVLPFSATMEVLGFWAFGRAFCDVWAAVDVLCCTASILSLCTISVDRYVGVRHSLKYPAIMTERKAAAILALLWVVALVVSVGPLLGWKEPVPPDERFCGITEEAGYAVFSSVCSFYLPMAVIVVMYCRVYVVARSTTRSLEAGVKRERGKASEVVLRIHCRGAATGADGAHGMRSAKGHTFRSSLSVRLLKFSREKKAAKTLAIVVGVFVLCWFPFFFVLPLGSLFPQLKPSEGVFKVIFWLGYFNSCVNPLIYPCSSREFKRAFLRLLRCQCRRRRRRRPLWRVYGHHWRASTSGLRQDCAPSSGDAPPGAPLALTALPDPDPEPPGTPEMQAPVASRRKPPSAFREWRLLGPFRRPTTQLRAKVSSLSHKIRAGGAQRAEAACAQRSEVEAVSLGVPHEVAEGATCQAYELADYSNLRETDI

[2] = molecular target: T2, Substance-K receptor (Homo sapiens, UniProt P21452); format: cell membranes, CHO, Membrane; further: in other assays of this panel Not Active means under 50% inhibition at 10 µM
T2 sequence (P21452 whole entry): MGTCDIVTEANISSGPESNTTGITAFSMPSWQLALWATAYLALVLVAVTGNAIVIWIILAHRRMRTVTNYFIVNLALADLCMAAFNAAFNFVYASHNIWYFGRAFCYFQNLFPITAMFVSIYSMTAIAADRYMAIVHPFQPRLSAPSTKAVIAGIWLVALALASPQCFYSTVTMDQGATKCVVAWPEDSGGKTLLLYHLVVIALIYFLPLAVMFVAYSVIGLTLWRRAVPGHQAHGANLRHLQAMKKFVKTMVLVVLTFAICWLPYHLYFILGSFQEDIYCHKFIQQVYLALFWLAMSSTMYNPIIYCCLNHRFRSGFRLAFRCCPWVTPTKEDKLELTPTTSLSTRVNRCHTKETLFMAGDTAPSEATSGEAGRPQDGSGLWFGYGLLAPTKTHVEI

[3] = molecular target: T3, Alpha-2C adrenergic receptor (Homo sapiens, UniProt P18825); assay: DRUGMATRIX: Adrenergic Alpha-2C radioligand binding (ligand: [3H] MK-912); format: cell membranes, Sf9, Membrane
T3 sequence (P18825 whole entry): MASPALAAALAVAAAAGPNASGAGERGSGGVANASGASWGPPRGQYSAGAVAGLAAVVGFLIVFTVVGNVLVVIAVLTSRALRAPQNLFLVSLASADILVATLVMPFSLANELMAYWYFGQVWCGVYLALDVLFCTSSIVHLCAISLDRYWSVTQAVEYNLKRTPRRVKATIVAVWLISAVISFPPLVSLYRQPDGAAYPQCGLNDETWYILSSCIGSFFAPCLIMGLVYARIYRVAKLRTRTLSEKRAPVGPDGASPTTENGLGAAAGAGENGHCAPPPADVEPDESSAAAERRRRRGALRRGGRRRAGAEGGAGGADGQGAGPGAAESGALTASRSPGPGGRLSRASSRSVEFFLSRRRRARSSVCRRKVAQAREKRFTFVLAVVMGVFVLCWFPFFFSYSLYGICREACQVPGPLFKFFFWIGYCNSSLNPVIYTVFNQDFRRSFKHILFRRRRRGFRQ

[4] = molecular target: Sodium-dependent dopamine transporter (Homo sapiens, UniProt Q01959); assay: DRUGMATRIX: Dopamine Transporter radioligand binding (ligand: [125I] RTI-55); format: cell membranes, CHO-K1, Membrane; conditions: Not Active = under 50% inhibition at 10 µM
Sequence of Sodium-dependent dopamine transporter (Q01959 whole entry): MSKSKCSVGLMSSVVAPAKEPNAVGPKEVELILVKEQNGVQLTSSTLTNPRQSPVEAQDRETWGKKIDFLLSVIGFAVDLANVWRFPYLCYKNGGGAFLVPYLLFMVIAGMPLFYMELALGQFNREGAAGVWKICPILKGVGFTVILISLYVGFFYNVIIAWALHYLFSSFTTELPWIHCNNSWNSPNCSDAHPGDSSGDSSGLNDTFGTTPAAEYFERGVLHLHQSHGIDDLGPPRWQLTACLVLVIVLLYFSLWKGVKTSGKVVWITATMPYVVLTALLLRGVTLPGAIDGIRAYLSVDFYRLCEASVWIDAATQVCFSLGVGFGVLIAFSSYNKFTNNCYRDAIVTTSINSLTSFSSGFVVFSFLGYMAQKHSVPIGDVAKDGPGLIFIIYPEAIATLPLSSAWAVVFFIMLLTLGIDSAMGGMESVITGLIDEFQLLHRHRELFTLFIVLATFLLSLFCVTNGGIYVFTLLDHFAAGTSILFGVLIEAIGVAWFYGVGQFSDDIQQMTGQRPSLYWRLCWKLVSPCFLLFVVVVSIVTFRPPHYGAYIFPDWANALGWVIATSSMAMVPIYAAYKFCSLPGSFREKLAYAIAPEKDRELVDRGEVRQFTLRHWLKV

SMILES | IC50 ([1]; hek293) | IC50 ([2]; cho) | IC50 ([3]; sf9) | IC50 ([4]; cho-k1) | IC50 ([2]; read-out: IC50) [nM] | Ki ([2]; read-out: Ki) [nM] | IC50 ([3]; read-out: IC50) [nM] | Ki ([3]; read-out: Ki) [nM] | IC50 ([1]; read-out: IC50) [nM] | Ki ([1]; read-out: Ki) [nM] | IC50 ([4]; read-out: IC50) [nM] | Ki ([4]; read-out: Ki) [nM]
C[C@@H]1CC[C@@]2(OC1)O[C@H]1[C@@H](O)[C@H]3[C@@H]4CC[C@H]5C[C@@H](O[C@@H]6O[C@H](CO)[C@H](O[C@@H]7O[C@H](CO)C(O)[C@H](O[C@@H]8OC[C@@H](O)[C@H](O)[C@H]8O)[C@H]7O[C@@H]7O[C@H](CO)[C@H](O)[C@H](O[C@@H]8O[C@H](CO)[C@@H](O)[C@H](O)[C@H]8O)[C@H]7O)[C@H](O)[C@H]6O)[C@H](O)C[C@]5(C)[C@H]4CC[C@]3(C)[C@H]1[C@@H]2C (some centres not stated) [DIGITONIN] | Not Active | Not Active | Not Active | Not Active | – | – | – | – | – | – | – | –
Oc1c(Cl)cc(Cl)c(Cl)c1Cc1c(O)c(Cl)cc(Cl)c1Cl [HEXACHLOROPHENE] | Not Active | – | – | Not Active | 4140 | 1380 | 6980 | 1010 | – | – | – | –
O=C1CN=C(c2ccccc2Cl)c2cc([N+](=O)[O-])ccc2N1 [CLONAZEPAM] | Not Active | Not Active | Not Active | Not Active | – | – | – | – | – | – | – | –
C[C@@H](CO)NC(=O)[C@@H]1C=C2c3cccc4[nH]cc(c34)C[C@H]2N(C)C1 [ERGONOVINE] | Not Active | Not Active | Not Active | Not Active | – | – | – | – | – | – | – | –
CCn1cc(C(=O)O)c(=O)c2cnc(N3CCCC3)nc21 [PIROMIDIC ACID] | Not Active | Not Active | Not Active | Not Active | – | – | – | – | – | – | – | –
C[C@@H]1C[C@H]2[C@@H]3CCC4=CC(=O)C=C[C@]4(C)[C@@]3(F)[C@@H](O)C[C@]2(C)[C@H]1C(=O)CO [DESOXIMETASONE] | Not Active | Not Active | Not Active | Not Active | – | – | – | – | – | – | – | –
CN(C)CC[C@@H](c1ccc(Cl)cc1)c1ccccn1 [DEXCHLORPHENIRAMINE] | – | Not Active | Not Active | – | – | – | – | – | 33700 | 16600 | 931 | 739
